The values below are quoted from earlier work in patent publication US20210379028A1, “TREATMENT OF DEPRESSIVE DISORDERS” (Ovid Therapeutics Inc., priority 2017, published 2021).

SMILES strings stand for the structures.

For data set [1] the following is noted: three-month efficacy study, treatment of insomnia.
For data set [2] the following is noted: patients with a history of drug abuse who received gaboxadol.
For data set [3] the following is noted: patients with severe major depressive disorder, combined with escitalopram.

For the compound `Oc1noc2c1CCNC2` [gaboxadol, 4,5,6,7-tetrahydroisoxazolo [5,4-c] pyridine-3-ol], in data set [1], the “effects in sleep onset and sleep maintenance” value was “failed to show significant effects”. In data set [2], the psychiatric adverse events entry is “steep increase”. Besides, the “benefit of combining gaboxadol with escitalopram over escitalopram alone” value in data set [3] is “no additional benefit”.
